Laboratory results as given in patent US10370371B2, “Substituted pyrimidine Bmi-1 inhibitors” (PTC Therapeutics, Inc., priority 2013, dated 2019).

What follows are compounds tested on Bmi-1 protein (assay: Sandwich ELISA Assay (Bmi-1 protein level in HT-1080 cells)).
Assay type: cell-based
In short: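 HT-1080 cells were treated with compounds (0.5% DMSO final) for 40-48 h at 37 °C. Lysates were assayed by sandwich ELISA: mouse anti-Bmi-1 capture, rabbit anti-Bmi-1 and HRP anti-rabbit detection, TMB read at OD450 (OD570 reference). Levels were quantified against a recombinant GST-Bmi-1 standard curve (125-8000 pg/mL).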

| SMILES | EC50 |
| --- | --- |
| Cc1nc2c(cc(F)c[n+]2[O-])n1-c1cc(N)nc(Nc2ccc(C(F)(F)F)cc2)n1 [Cpd 108, 6-(6-fluoro-2-methyl-4-oxido-1H-imidazo[4,5-b]pyridin-1-yl)-N^2-[4-(trifluoromethyl)phenyl]pyrimidine-2,4-diamine] | 100 to 3000 nM |
| Cc1nn2ccc(F)cc2c1-c1cc(N)nc(Nc2ccc(C(F)(F)F)cc2)n1 [Cpd 109, 6-(5-fluoro-2-methylpyrazolo[1,5-a]pyridin-3-yl)-N^2-[4-(trifluoromethyl)phenyl]pyrimidine-2,4-diamine] | 10 to 100 nM |
| Cc1nc2ccc(F)cc2n1-c1cc(N)[n+]([O-])c(Nc2ccc(C(F)(F)F)cc2)n1 [Cpd 112, 6-(6-fluoro-2-methyl-1H-benzimidazol-1-yl)-N^2-[4-(trifluoromethyl)phenyl]pyrimidine-2,4-diamine 3-oxide] | 100 to 3000 nM |
| COc1ccn2nc(C)c(-c3cc(Cl)nc(Nc4ccc(C(F)(F)F)cc4)n3)c2c1 [Cpd 113, 4-chloro-6-(5-methoxy-2-methylpyrazolo[1,5-a]pyridin-3-yl)-N-[4-(trifluoromethyl)phenyl]pyrimidin-2-amine] | 10 to 100 nM |
| COc1ccn2nc(C)c(-c3cc(N)nc(Nc4ccc(C(F)(F)F)cc4)n3)c2c1 [Cpd 114, 6-(5-methoxy-2-methylpyrazolo[1,5-a]pyridin-3-yl)-N^2-[4-(trifluoromethyl)phenyl]pyrimidine-2,4-diamine] | 10 to 100 nM |
| Cc1nc2cc(F)c(F)cc2n1-c1cc(N)[n+]([O-])c(Nc2ccc(OC(F)F)cc2)n1 [Cpd 115, N^2-[4-(difluoromethoxy)phenyl]-6-(5,6-difluoro-2-methyl-1H-benzimidazol-1-yl)pyrimidine-2,4-diamine 3-oxide] | 100 to 3000 nM |
| Nc1cc(-n2c(C3CC3)nc3ccccc32)nc(Nc2ccc(C(F)(F)F)cc2)[n+]1[O-] [Cpd 116, 6-(2-cyclopropyl-1H-benzimidazol-1-yl)-N^2-[4-(trifluoromethyl)phenyl]pyrimidine-2,4-diamine 3-oxide] | 100 to 3000 nM |
| CCc1nc2ccccc2n1-c1cc(N)[n+]([O-])c(Nc2ccc(C(F)(F)F)cc2)n1 [Cpd 118, 6-(2-ethyl-1H-benzimidazol-1-yl)-N^2-[4-(trifluoromethyl)phenyl]pyrimidine-2,4-diamine 3-oxide] | 100 to 3000 nM |
| CCc1nc2ccc(F)cc2n1-c1cc(N)[n+]([O-])c(Nc2ccc(C(F)(F)F)cc2)n1 [Cpd 119, 6-(2-ethyl-6-fluoro-1H-benzimidazol-1-yl)-N^2-[4-(trifluoromethyl)phenyl]pyrimidine-2,4-diamine 3-oxide] | 100 to 3000 nM |
| Cc1nn2ccc(N)cc2c1-c1cc(N)nc(Nc2ccc(C(F)(F)F)cc2)n1 [Cpd 120, 6-(5-amino-2-methylpyrazolo[1,5-a]pyridin-3-yl)-N^2-[4-(trifluoromethyl)phenyl]pyrimidine-2,4-diamine] | 10 to 100 nM |
| Cc1nn2ccc(Cl)cc2c1-c1cc(N)nc(Nc2ccc(OC(F)F)cc2)n1 [Cpd 121, 6-(5-chloro-2-methylpyrazolo[1,5-a]pyridin-3-yl)-N^2-[4-(difluoromethoxy)phenyl]pyrimidine-2,4-diamine] | 10 to 100 nM |
| Cc1nn2ccc(Cl)cc2c1-c1cc(N)nc(Nc2ccc(C(F)(F)F)cc2)n1 [Cpd 122, 6-(5-chloro-2-methylpyrazolo[1,5-a]pyridin-3-yl)-N^2-[4-(trifluoromethyl)phenyl]pyrimidine-2,4-diamine] | 10 to 100 nM |
| CCc1nn2ccc(Cl)cc2c1-c1cc(N)nc(Nc2ccc(C(F)(F)F)cc2)n1 [Cpd 124, 6-(5-chloro-2-ethylpyrazolo[1,5-a]pyridin-3-yl)-N^2-[4-(trifluoromethyl)phenyl]pyrimidine-2,4-diamine] | 10 to 100 nM |
| CCc1nn2ccc(Cl)cc2c1-c1cc(N)nc(Nc2ccc(OC(F)F)cc2)n1 [Cpd 125, 6-(5-chloro-2-ethylpyrazolo[1,5-a]pyridin-3-yl)-N^2-[4-(difluoromethoxy)phenyl]pyrimidine-2,4-diamine] | 10 to 100 nM |
| CCc1nc2ccc(F)cc2n1-c1cc(N)nc(Nc2cccc(Cl)c2)n1 [Cpd 164, N^2-(3-chlorophenyl)-6-(2-ethyl-6-fluoro-1H-benzimidazol-1-yl)pyrimidine-2,4-diamine] | 100 to 3000 nM |
| COc1ccc(Nc2nc(N)cc(-c3c(C)nc4ccc(F)cn34)n2)cc1 [Cpd 170, 6-(6-fluoro-2-methylimidazo[1,2-a]pyridin-3-yl)-N^2-(4-methoxyphenyl)pyrimidine-2,4-diamine] | 1 to 10 nM |
| Cc1ccc(Nc2nc(N)cc(-c3c(C)nc4ccc(F)cn34)n2)cc1 [Cpd 171, 6-(6-fluoro-2-methylimidazo[1,2-a]pyridin-3-yl)-N^2-(4-methylphenyl)pyrimidine-2,4-diamine] | 1 to 10 nM |
| Cc1cccc(Nc2nc(N)cc(-c3c(C)nc4ccc(F)cn34)n2)c1 [Cpd 173, 6-(6-fluoro-2-methylimidazo[1,2-a]pyridin-3-yl)-N^2-(3-methylphenyl)pyrimidine-2,4-diamine] | 100 to 3000 nM |
| Cc1nc2ccc(F)cc2n1-c1cc(N)nc(Nc2ccc(Cl)c(F)c2)n1 [Cpd 174, N^2-(4-chloro-3-fluorophenyl)-6-(6-fluoro-2-methyl-1H-benzimidazol-1-yl)pyrimidine-2,4-diamine] | 10 to 100 nM |
| COc1ccc(Nc2nc(N)cc(-n3c(C)nc4cc(F)c(F)cc43)n2)cc1 [Cpd 180, 6-(5,6-difluoro-2-methyl-1H-benzimidazol-1-yl)-N^2-(4-methoxyphenyl)pyrimidine-2,4-diamine] | 1 to 10 nM |
| Cc1ccc(Nc2nc(N)cc(-n3c(C)nc4cc(F)c(F)cc43)n2)cc1 [Cpd 181, 6-(5,6-difluoro-2-methyl-1H-benzimidazol-1-yl)-N^2-(4-methylphenyl)pyrimidine-2,4-diamine] | 1 to 10 nM |

The remaining lines, values ahead:

| EC50 | SMILES |
| --- | --- |
| 100 to 3000 nM | Cc1nc2ccccc2n1-c1cc(N)[n+]([O-])c(Nc2ccc(C(F)(F)F)cc2)n1 [Cpd 110, 6-(2-methyl-1H-benzimidazol-1-yl)-N^2-[4-(trifluoromethyl)phenyl]pyrimidine-2,4-diamine 3-oxide] |
| 10 to 100 nM | CSc1nc2ccccc2n1-c1cc(N)nc(Nc2ccc(C(F)(F)F)cc2)n1 [Cpd 123, 6-[2-(methylsulfanyl)-1H-benzimidazol-1-yl]-N^2-[4-(trifluoromethyl)phenyl]pyrimidine-2,4-diamine] |
| 100 to 3000 nM | Cc1cccc(Nc2nc(N)cc(-n3c(C)nc4ccccc43)n2)c1 [Cpd 127, 6-(2-methyl-1H-benzimidazol-1-yl)-N^2-(3-methylphenyl)pyrimidine-2,4-diamine] |
| 1 to 10 nM | Cc1ccc(Nc2nc(N)cc(-n3c(C)nc4ccccc43)n2)cc1 [Cpd 128, 6-(2-methyl-1H-benzimidazol-1-yl)-N^2-(4-methylphenyl)pyrimidine-2,4-diamine] |
| 10 to 100 nM | Cc1nc2ccccc2n1-c1cc(N)nc(Nc2ccc(Br)cc2)n1 [Cpd 131, N^2-(4-bromophenyl)-6-(2-methyl-1H-benzimidazol-1-yl)pyrimidine-2,4-diamine] |
| 100 to 3000 nM | Cc1nc2ccccc2n1-c1cc(N)nc(Nc2ccc([N+](=O)[O-])cc2)n1 [Cpd 132, 6-(2-methyl-1H-benzimidazol-1-yl)-N^2-(4-nitrophenyl)pyrimidine-2,4-diamine] |
| 1 to 10 nM | COc1ccc(Nc2nc(N)cc(-n3c(C)nc4ccc(F)cc43)n2)cc1 [Cpd 133, 6-(6-fluoro-2-methyl-1H-benzimidazol-1-yl)-N^2-(4-methoxyphenyl)pyrimidine-2,4-diamine] |
| 1 to 10 nM | Cc1nc2ccccc2n1-c1cc(N)nc(Nc2ccc(N(C)C)cc2)n1 [Cpd 144, N^2-[4-(dimethylamino)phenyl]-6-(2-methyl-1H-benzimidazol-1-yl)pyrimidine-2,4-diamine] |
| 100 to 3000 nM | Cc1nc2ccccc2n1-c1cc(N)nc(Nc2ccc(C#N)cc2)n1 [Cpd 145, 4-{[4-amino-6-(2-methyl-1H-benzimidazol-1-yl)pyrimidin-2-yl]amino}benzonitrile] |
| 100 to 3000 nM | Cc1nc2ccccc2n1-c1cc(N)nc(Nc2ccc(OC(F)(F)F)cc2)n1 [Cpd 146, 6-(2-methyl-1H-benzimidazol-1-yl)-N^2-[4-(trifluoromethoxy)phenyl]pyrimidine-2,4-diamine] |
| 100 to 3000 nM | Cc1nc2ccccc2n1-c1cc(N)nc(Nc2ccc3c(c2)OC(F)(F)O3)n1 [Cpd 147, N^2-(2,2-difluoro-1,3-benzodioxol-5-yl)-6-(2-methyl-1H-benzimidazol-1-yl)pyrimidine-2,4-diamine] |
| 1 to 10 nM | COc1ccc(Nc2nc(N)cc(-n3c(C)nc4ccccc43)n2)cc1Cl [Cpd 149, N^2-(3-chloro-4-methoxyphenyl)-6-(2-methyl-1H-benzimidazol-1-yl)pyrimidine-2,4-diamine] |
| 1 to 10 nM | CCc1nc2ccccc2n1-c1cc(N)nc(Nc2ccc(C)cc2)n1 [Cpd 153, 6-(2-ethyl-1H-benzimidazol-1-yl)-N^2-(4-methylphenyl)pyrimidine-2,4-diamine] |
| 10 to 100 nM | COc1ccc(Nc2nc(N)c(F)c(-n3c(C)nc4ccccc43)n2)cc1 [Cpd 176, 5-fluoro-N^2-(4-methoxyphenyl)-6-(2-methyl-1H-benzimidazol-1-yl)pyrimidine-2,4-diamine] |
| 10 to 100 nM | Cc1nc2ccccc2n1-c1cc(N)nc(Nc2ccc(Cl)cc2)n1 [Cpd 177, N^2-(4-chlorophenyl)-6-(2-methyl-1H-benzimidazol-1-yl)pyrimidine-2,4-diamine] |
| 1 to 10 nM | Cc1ccc(Nc2nc(N)c(F)c(-n3c(C)nc4ccccc43)n2)cc1 [Cpd 178, 5-fluoro-6-(2-methyl-1H-benzimidazol-1-yl)-N^2-(4-methylphenyl)pyrimidine-2,4-diamine] |
| 10 to 100 nM | Cc1nc2ccccc2n1-c1cc(N)nc(Nc2ccc(Cl)c(F)c2)n1 [Cpd 179, N^2-(4-chloro-3-fluorophenyl)-6-(2-methyl-1H-benzimidazol-1-yl)pyrimidine-2,4-diamine] |
| 10 to 100 nM | Cc1nc2cc(F)c(F)cc2n1-c1cc(N)nc(Nc2ccc(Cl)cc2)n1 [Cpd 182, N^2-(4-chlorophenyl)-6-(5,6-difluoro-2-methyl-1H-benzimidazol-1-yl)pyrimidine-2,4-diamine] |
